Read-outs that look alike come from different tables or passages of the source.
What was measured:
Candida albicans = test: Activity against Candida albicans in microtiter plates, % control of growth; assay type: cell-based
Experimental: The activity against Candida albicans was determined using the following test protocol.
Conidia and mycelium from the Candida albicans culture maintained on potato dextrose agar plates were lightly scraped off into yeast extract-dextrose broth (YDB) so that mostly conidia was used as inoculum. The conidial suspsension was strained through a double layer of cheesecloth to remove mycelial clumps. The inoculum mixture was placed in microtiter plates using a 12-tipped pipet. 175 microliters were placed in each well of the microliter plates and the plates were placed in the refrigerator overnight. There were two replications.
The compounds to be tested were dissolved in 1:1 acetone:methanol and 100 ppm of the compound solution were placed in a well of the prepared microtiter plates.
The microtiter plates were incubated for 7 days at room temperature after addition of the compounds. Percent control was visually estimated using a microtiter plate reading mirror. Readings were made at 1, 2, 3, and/or 7 days after treatment.

fungal mycelium = test: organism not typed; assay type: cell-based; conditions: read-out: % growth inhibition
[1] = system: Magnaporthe grisea (Pyricularia oryzae); test: whole plant or invertebrate; assay type: in vivo, Magnaporthe grisea (Pyricularia oryzae) on M201 rice plants; conditions: for pest or weed control at 200 ppm: Pyricularia oryzae, 144 h, read-out: % Control RB; for % Control RB: 200 ppm, protectant
fungal inoculum = test: organism not typed; assay type: cell-based
[2] = 24 h, 1 day after treatment, read-out: % control of growth +1
[3] = 48 h, 2 days after treatment, read-out: % control of growth +2
[4] = 72 h, 3 days after treatment, read-out: % control of growth +3

Compound | pest or weed control at 200 ppm [1] [%] | inhibition at 50 ppm (fungal inoculum; read-out: % growth inhibition) [%] | other results
CCC#CCN1N=C(c2ccc3ccccc3n2)CCC1=O [Compound 229, 6-(2-quinoline)-2-(2'-pentynyl)-4,5-dihydropyridazinone] |  |  | inhibition of growth at 100 ppm (Candida albicans; [2]): 100%; inhibition of growth at 100 ppm (Candida albicans; [3]): 100%; inhibition of growth at 100 ppm (Candida albicans; [4]): 100%; inhibition at 5 ppm (fungal mycelium): 100%
CCC#CCn1nc(-c2ccc(Cl)c(F)c2)ccc1=O [Compound 120] | 99 |  | inhibition of growth at 100 ppm (Candida albicans; [2]): 100%; inhibition of growth at 100 ppm (Candida albicans; [3]): 100%; inhibition of growth at 100 ppm (Candida albicans; [4]): 100%; inhibition at 1 ppm (fungal mycelium): 100%
CC(F)C#CCn1nc(-c2ccc(Cl)cc2)ccc1=O (stereo not shown) [Compound 130] |  |  | inhibition of growth at 100 ppm (Candida albicans; [2]): 100%; inhibition of growth at 100 ppm (Candida albicans; [3]): 100%; inhibition of growth at 100 ppm (Candida albicans; [4]): 100%; inhibition at 1 ppm (fungal mycelium): 100%
O=c1ccc(-c2ccc(Cl)cc2)nn1CC#CCCF [Compound 131] |  |  | inhibition of growth at 100 ppm (Candida albicans; [2]): 100%; inhibition of growth at 100 ppm (Candida albicans; [3]): 100%; inhibition of growth at 100 ppm (Candida albicans; [4]): 100%; inhibition at 1 ppm (fungal mycelium): 100%
CC(=O)OC(C)C#CCN1N=C(c2ccc(Cl)cc2)CCC1=O (stereo not shown) [Compound 49, 6-(4-chlorophenyl)-2-(4'acetoxy-2'-pentynyl)-4,5-dihydropyridazinone] | 90 | 100 | 
CC(F)C#CCN1N=C(c2ccc(Cl)cc2)CCC1=O (stereo not shown) [Compound 53] | 100 | 100 | 
CCC#CCN1N=C(c2cc(Cl)c(C)c(Cl)c2Cl)CCC1=O [Compound 43] | 0 |  | inhibition at 10 ppm (fungal inoculum; read-out: % growth inhibition): 22.3%
O=C1CCC(c2ccc(Cl)cc2)=NN1CC#CCF [Compound 76, 6-(4-chlorophenyl)-2-(4'-fluoro-2'-butynyl)-4,5-dihydropyridazinone] | 0 |  | inhibition of growth at 100 ppm (Candida albicans; [2]): 100%; inhibition of growth at 100 ppm (Candida albicans; [3]): 100%; inhibition of growth at 100 ppm (Candida albicans; [4]): 100%; inhibition at 10 ppm (fungal mycelium): 100%
CC(C)(C)C#CCN1N=C(c2ccc(Cl)cc2)CCC1=O [Compound 46] | 0 |  | inhibition at 100 ppm (fungal inoculum; read-out: % growth inhibition): 100%
CC#CCN1N=C(c2ccc(Cl)cc2)C(C)CC1=O (stereo not shown) [Compound 26, 6-(4-chlorophenyl)-5-methyl-2-(2'-butynyl)-4,5-dihydropyridazinone] | 95 | 96.3 | 
C=C(C)C#CCN1N=C(c2ccc(Cl)cc2)CCC1=O [Compound 45] | 0 |  | inhibition at 10 ppm (fungal inoculum; read-out: % growth inhibition): 100%
CCC#CCN1N=C(c2ccc(CC)cc2)CCC1=O [Compound 59] | 0 |  | inhibition at 10 ppm (fungal inoculum; read-out: % growth inhibition): 100%
CC#CCN1N=C(c2ccc(Cl)c([N+](=O)[O-])c2)CCC1=O [Compound 39] | 0 | 94.6 | 
CCC#CCn1nc(-c2ccc(CC)cc2)ccc1=O [Compound 110] | 0 |  | inhibition at 10 ppm (fungal inoculum; read-out: % growth inhibition): 100%
CCC#CCN1N=C(c2ccc3ccccc3c2)CCC1=O [Compound 136] | 99 |  | inhibition at 1 ppm (fungal inoculum; read-out: % growth inhibition): 84.6%
O=C1CCC(c2ccc(Cl)cc2)=NN1CC#CC(F)=C(F)F [Compound 78] | 0 |  | inhibition at 0.5 ppm (fungal inoculum; read-out: % growth inhibition): 100%
CC#CCN1N=C(c2cccs2)CCC1=O [Compound 140] | 75 |  | inhibition at 100 ppm (fungal inoculum; read-out: % growth inhibition): 37.8%
O=C1CCC(c2ccc(Cl)cc2)=NN1CC#CC1CO1 (stereo not shown) [Compound 77] | 0 |  | inhibition at 10 ppm (fungal inoculum; read-out: % growth inhibition): 89.2%
O=C1CCC(c2ccc(Cl)cc2)=NN1CC1CC1 [Compound 25] | 50 | 100 | 
CC#CCN1N=C(c2ccc(Oc3ccccc3)cc2)CCC1=O [Compound 33] | 0 |  | inhibition at 100 ppm (fungal inoculum; read-out: % growth inhibition): 27.6%
O=C1CCC(c2ccc(Cl)cc2)=NN1Cc1cccs1 [Compound 36, 6-(4-chlorophenyl)-2-(2'-thienylmethyl)-4,5-dihydropyridazinone] | 90 | 100 | 
CC(O)C#CCN1N=C(c2ccc(Cl)cc2)CCC1=O (stereo not shown) [Compound 47, 6-(4-chlorophenyl)-2-(4'hydroxy-2'-pentynyl)-4,5-dihydropyridazinone] | 0 | 100 | 

Compound | pest or weed control at 200 ppm [1] [%] | inhibition at 50 ppm (fungal inoculum; read-out: % growth inhibition) [%] | other results
CC#CC(C)N1N=C(c2ccc(Cl)cc2)CCC1=O (stereo not shown) [Compound 22] | 75 |  | inhibition at 100 ppm (fungal inoculum; read-out: % growth inhibition): 99.7%
CC#CCN1N=C(c2ccc(CC)cc2)CCC1=O [Compound 58] | 0 |  | inhibition at 10 ppm (fungal inoculum; read-out: % growth inhibition): 39.8%
CC#CCN1N=C(c2cc(Cl)cc(Cl)c2)CCC1=O [Compound 38] | 75 |  | inhibition at 100 ppm (fungal inoculum; read-out: % growth inhibition): 75.2%
CC#CCN1N=C(c2cccc(Cl)c2)CCC1=O [Compound 37, 6-(3-chlorophenyl)-2-(2'-butynyl)-4,5-dihydropyridazinone] | 90 |  | inhibition at 100 ppm (fungal inoculum; read-out: % growth inhibition): 100%
O=C1CCC(c2ccc(Cl)cc2)=NN1CC#CCCF [Compound 51, 6-(4-chlorophenyl)-2-(5'-fluoro-2'-pentynyl)-4,5-dihydropyridazinone] | 100 | 100 | 
CCC#CCN1N=C(c2ccc(Cl)c([N+](=O)[O-])c2)CCC1=O [Compound 40] | 0 |  | inhibition at 5 ppm (fungal inoculum; read-out: % growth inhibition): 95.7%
CC#CCN1N=C(c2cccc3ccccc23)CCC1=O [Compound 134, 6-(1-naphthyl)-2-(2'-pentynyl)-4,5-dihydropyridazinone] | 0 | 66.5 | 
CCC[CH2][Sn]([C]#CCN1N=C(c2ccc(Cl)cc2)CCC1=O)([CH2]CCC)[CH2]CCC [Compound 124, 6-(4-chlorophenyl)-2-(3'-tri-n-butyltin-2'-propynyl)-4,5-dihydropyridazinon] |  |  | % Control RB [1]: 0%; % growth inhibition (fungal inoculum): 100.0%
CCC#CCC1(CC#CCC)c2cc(Cl)ccc2-c2n[nH]c(=O)cc21 [Compound 151, 5,5'-[bis(pent-2-yn-1-yl)]-7-chloro-2,5-dihydroindeno-[1,2-c]-(2H)-pyridazin-3-one] | 0 |  | inhibition at 100 ppm (fungal inoculum; read-out: % growth inhibition): 80.6%
CC#CCN1N=C(c2ccc(Cl)c(Cl)c2)CCC1=O [Compound 23] | 50 |  | inhibition at 5 ppm (fungal inoculum; read-out: % growth inhibition): 100%
CC(C)=CCN1N=C(c2ccc(Cl)cc2)CCC1=O [Compound 32] | 0 |  | inhibition at 100 ppm (fungal inoculum; read-out: % growth inhibition): 100%
CCC#CCN1N=C(c2ccc(Cl)c(Cl)c2)CCC1=O [Compound 28, 6-(3,4-dichlorophenyl)-2-(2'-pentynyl)-4,5-dihydropyridazinone] | 95 |  | inhibition at 1 ppm (fungal inoculum; read-out: % growth inhibition): 100%
CCC#CCn1nc(-c2ccc(Cl)cc2C)ccc1=O [Compound 115] | 50 | 93.7 | 
CCC#CCn1nc(-c2ccc(Cl)c(Cl)c2)ccc1=O [Compound 112] | 90 |  | inhibition at 10 ppm (fungal inoculum; read-out: % growth inhibition): 100%
CCC#CCN1N=C(c2ccc(OC(F)(F)F)c(F)c2)CCC1=O [Compound 92] | 90 |  | inhibition at 1 ppm (fungal inoculum; read-out: % growth inhibition): 100%
CCC#CCN1N=C(c2ccc(Cl)cc2F)CCC1=O [Compound 73] | 95 | 94.4 | 
O=C1CCC(c2ccc(Cl)cc2)=NN1CC#CCBr [Compound 71] | 0 | 92.6 | 
CCC#CCN1N=C2c3ccccc3CC2CC1=O (stereo not shown) [Compound 142] | 50 | 100 | 
5-chloro-1-(2-pentyn-1-yl)-2-quinolinone [Compound 149] |  |  | % Control RB [1]: 100%; % growth inhibition (fungal inoculum): 51.5%
CC(C)C#CC=CCN1N=C(c2ccc(Cl)cc2)CCC1=O [Compound 70] | 0 |  | inhibition at 5 ppm (fungal inoculum; read-out: % growth inhibition): 100%
CC#CCN1N=C(c2ccc(Cl)cc2)CC(C)C1=O (stereo not shown) [Compound 27] | 0 | 100 | 
O=C1CCC(c2ccc(Cl)cc2)=NN1c1ccccc1 [Compound 14] | 0 | 100 | 

Source: US5726162A (priority 1996, dated 1998)
